Test results: ChEMBL document CHEMBL1135809 (J Med Chem, 2002)

Legend:
[1] = target: Sigma non-opioid intracellular receptor 1 (Homo sapiens) (UniProt Q99720); assay: Selectivity ratio (Sigma1/Sigma2)
[2] = target: T1, 5-hydroxytryptamine receptor 1A (Mus musculus, UniProt Q64264); assay: Inhibition of […] binding to 5-hydroxytryptamine 1A receptor
T1 sequence (Q64264 whole entry): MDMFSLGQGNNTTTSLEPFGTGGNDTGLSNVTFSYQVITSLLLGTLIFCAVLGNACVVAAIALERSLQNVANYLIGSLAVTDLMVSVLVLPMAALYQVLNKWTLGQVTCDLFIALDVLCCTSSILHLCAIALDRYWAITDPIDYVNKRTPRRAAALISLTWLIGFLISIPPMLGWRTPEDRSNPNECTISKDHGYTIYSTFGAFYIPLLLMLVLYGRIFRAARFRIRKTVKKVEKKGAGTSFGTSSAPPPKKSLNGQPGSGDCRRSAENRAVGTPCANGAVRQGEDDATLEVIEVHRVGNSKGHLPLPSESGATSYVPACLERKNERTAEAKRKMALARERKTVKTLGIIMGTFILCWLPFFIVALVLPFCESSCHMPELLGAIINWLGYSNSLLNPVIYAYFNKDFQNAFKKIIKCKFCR

[3] = target: 5-hydroxytryptamine receptor 2A (Homo sapiens, UniProt P28223); assay: Inhibition of ketanserin binding to 5-hydroxytryptamine 2A receptor
[4] = target: T2, 5-hydroxytryptamine receptor 3A (Homo sapiens, UniProt P46098); assay: Inhibition of GR-65630 binding to 5-hydroxytryptamine 3 receptor
T2 sequence (P46098 whole entry): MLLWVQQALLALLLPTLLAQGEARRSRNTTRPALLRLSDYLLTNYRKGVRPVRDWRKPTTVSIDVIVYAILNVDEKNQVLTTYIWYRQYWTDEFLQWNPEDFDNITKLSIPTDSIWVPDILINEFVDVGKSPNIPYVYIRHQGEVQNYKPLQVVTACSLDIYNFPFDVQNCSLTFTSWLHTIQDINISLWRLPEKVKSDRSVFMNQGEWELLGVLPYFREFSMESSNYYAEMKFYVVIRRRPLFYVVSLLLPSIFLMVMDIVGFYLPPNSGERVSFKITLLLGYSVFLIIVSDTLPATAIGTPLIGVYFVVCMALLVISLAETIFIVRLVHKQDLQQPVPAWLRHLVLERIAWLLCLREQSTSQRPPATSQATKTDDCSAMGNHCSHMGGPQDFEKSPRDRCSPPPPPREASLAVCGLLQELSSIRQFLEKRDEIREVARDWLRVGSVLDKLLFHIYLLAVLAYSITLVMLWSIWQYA

[5] = target: D(1A) dopamine receptor (Mus musculus, UniProt Q61616); assay: Inhibition of SCH 23390 binding to Dopamine receptor D1
[6] = target: Histamine H1 receptor (Homo sapiens, UniProt P35367); assay: Inhibition of mepyramine binding to Histamine H1 receptor
[7] = target: Glutamate receptor ionotropic, NMDA 2C (Rattus norvegicus, UniProt Q00961); assay: Inhibition of MK 801 binding to NMDA, PCP receptor
[8] = target: Substance-P receptor (Homo sapiens, UniProt P25103); assay: Inhibition of [Sar9,Met(O2)11]-SP binding to human Tachykinin receptor 1 (NK1)
[9] = target: T3, Neuromedin-K receptor (Homo sapiens, UniProt P29371); assay: Inhibition of [125I][MePhe7]-NKB binding to human Tachykinin receptor 3 (NK3)
T3 sequence (P29371 whole entry): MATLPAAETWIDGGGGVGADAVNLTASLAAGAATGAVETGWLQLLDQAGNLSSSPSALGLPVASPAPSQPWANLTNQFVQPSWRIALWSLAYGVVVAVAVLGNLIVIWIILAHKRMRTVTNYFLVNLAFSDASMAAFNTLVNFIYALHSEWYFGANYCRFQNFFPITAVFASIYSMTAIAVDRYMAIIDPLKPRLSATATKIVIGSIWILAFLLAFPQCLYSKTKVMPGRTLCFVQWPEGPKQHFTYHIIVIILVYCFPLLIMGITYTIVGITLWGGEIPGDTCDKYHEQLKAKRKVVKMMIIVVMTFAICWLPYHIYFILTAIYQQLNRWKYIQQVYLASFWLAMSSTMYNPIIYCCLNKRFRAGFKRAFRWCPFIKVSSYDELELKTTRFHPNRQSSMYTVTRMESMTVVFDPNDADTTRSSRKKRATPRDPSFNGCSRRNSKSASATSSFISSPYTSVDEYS

[10] = target: T4, Substance-K receptor (Homo sapiens, UniProt P21452); assay: Inhibition of [125I]NKA binding to human Tachykinin receptor 2 (NK2)
T4 sequence (P21452 whole entry): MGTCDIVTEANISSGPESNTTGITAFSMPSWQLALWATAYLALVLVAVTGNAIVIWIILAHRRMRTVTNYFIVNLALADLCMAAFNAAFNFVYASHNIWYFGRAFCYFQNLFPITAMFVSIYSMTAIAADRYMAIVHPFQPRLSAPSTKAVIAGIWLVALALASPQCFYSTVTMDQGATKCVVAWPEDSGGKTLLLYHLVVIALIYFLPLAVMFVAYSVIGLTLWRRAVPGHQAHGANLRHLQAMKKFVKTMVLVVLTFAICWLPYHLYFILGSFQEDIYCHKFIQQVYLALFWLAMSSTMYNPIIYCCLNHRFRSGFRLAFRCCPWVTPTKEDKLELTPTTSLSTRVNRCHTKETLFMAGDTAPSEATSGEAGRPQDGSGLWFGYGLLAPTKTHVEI

[11] = target: T5, Alpha-2A adrenergic receptor (Homo sapiens, UniProt P08913); assay: Inhibition of idazoxane binding to noradrenaline alpha-2 receptor
T5 sequence (P08913 whole entry): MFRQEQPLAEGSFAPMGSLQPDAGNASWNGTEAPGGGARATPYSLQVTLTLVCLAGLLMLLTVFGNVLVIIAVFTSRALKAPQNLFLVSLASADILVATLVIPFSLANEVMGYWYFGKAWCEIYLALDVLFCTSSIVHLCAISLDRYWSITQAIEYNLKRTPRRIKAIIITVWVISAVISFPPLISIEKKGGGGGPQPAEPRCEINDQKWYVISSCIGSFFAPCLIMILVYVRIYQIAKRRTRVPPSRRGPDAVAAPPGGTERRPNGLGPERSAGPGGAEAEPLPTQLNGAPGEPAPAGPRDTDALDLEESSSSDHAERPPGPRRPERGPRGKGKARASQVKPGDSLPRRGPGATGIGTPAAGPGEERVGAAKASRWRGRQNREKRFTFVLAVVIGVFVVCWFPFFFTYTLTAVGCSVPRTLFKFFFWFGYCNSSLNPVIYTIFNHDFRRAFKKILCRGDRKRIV

[12] = The compound was tested for inhibition of noradrenaline reuptake; format: functional
[13] = Inhibition of prazosin binding to noradrenaline alpha-1 receptor
[14] = The compound was tested for inhibition of serotonin reuptake; format: functional

Substance-P receptor, sequence (P25103 whole entry): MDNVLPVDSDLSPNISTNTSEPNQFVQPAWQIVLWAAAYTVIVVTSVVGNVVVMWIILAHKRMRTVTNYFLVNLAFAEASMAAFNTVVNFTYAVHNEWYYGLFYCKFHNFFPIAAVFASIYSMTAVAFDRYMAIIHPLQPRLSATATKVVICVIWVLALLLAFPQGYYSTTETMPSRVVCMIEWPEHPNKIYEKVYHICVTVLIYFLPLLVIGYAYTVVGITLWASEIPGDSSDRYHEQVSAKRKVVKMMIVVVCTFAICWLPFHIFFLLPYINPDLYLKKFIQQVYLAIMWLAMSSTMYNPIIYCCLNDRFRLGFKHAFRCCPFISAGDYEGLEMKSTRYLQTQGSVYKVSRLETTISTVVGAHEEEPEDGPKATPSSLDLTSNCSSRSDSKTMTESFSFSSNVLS
D(1A) dopamine receptor, sequence (Q61616 whole entry): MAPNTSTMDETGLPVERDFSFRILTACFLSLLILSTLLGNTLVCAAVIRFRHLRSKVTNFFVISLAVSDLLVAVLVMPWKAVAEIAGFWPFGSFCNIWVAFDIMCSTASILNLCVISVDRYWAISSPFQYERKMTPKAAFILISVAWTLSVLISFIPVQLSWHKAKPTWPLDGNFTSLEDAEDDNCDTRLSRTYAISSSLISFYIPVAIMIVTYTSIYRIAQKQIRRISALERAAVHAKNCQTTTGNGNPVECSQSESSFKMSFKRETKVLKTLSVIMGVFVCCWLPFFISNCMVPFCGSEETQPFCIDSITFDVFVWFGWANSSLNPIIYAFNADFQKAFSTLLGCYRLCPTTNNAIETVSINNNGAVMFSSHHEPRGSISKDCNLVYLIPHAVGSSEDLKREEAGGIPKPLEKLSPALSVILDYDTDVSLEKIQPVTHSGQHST
Glutamate receptor ionotropic, NMDA 2C, sequence (Q00961 whole entry): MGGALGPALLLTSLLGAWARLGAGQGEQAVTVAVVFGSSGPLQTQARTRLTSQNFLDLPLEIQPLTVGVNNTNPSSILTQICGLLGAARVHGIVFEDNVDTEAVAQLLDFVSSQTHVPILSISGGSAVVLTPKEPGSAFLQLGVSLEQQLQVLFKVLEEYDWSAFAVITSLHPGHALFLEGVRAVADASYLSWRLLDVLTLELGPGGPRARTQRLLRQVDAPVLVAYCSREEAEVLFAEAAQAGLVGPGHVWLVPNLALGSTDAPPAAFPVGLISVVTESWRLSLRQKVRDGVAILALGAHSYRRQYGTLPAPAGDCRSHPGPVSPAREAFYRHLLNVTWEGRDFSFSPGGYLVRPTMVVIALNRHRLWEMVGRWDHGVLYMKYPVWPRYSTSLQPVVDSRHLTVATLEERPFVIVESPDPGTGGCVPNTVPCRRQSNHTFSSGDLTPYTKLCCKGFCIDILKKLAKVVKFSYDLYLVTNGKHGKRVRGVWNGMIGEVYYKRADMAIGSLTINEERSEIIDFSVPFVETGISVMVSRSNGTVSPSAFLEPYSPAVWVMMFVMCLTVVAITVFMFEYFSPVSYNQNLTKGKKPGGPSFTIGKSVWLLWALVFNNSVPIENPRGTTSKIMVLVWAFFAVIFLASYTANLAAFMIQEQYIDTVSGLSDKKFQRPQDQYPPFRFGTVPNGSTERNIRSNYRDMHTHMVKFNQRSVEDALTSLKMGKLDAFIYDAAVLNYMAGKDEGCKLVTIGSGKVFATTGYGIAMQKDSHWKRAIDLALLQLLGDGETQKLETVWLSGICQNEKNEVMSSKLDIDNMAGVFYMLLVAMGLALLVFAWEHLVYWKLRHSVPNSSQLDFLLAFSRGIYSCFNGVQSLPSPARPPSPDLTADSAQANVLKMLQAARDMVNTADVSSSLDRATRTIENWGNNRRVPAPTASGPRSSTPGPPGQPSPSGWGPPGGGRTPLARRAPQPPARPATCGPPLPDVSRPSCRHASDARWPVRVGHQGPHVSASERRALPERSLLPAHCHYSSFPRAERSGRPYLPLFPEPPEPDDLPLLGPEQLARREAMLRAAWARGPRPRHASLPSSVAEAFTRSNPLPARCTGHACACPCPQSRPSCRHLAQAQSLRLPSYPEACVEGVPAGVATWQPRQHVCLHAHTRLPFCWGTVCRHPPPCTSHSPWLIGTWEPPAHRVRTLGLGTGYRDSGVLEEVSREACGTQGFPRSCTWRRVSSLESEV
Histamine H1 receptor, sequence (P35367 whole entry): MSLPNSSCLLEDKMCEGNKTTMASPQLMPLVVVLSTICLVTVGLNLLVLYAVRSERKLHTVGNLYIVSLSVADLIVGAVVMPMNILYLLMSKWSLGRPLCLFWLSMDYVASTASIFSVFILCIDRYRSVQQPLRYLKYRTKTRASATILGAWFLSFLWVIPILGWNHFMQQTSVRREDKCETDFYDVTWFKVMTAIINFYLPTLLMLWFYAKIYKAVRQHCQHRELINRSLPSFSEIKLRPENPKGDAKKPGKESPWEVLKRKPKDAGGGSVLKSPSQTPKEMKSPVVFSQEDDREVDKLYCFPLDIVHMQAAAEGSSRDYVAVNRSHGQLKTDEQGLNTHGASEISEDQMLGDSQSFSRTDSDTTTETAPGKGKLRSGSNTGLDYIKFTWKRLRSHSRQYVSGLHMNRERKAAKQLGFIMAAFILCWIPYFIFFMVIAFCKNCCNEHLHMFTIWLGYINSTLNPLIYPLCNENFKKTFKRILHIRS
Sigma non-opioid intracellular receptor 1 (Homo sapiens), sequence (Q99720 whole entry): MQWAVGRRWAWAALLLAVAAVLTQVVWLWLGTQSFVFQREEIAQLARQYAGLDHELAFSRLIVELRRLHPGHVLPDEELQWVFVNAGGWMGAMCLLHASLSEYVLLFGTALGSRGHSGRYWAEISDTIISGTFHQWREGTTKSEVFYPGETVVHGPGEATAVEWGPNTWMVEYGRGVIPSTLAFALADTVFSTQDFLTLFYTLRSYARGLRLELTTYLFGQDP
5-hydroxytryptamine receptor 2A, sequence (P28223 whole entry): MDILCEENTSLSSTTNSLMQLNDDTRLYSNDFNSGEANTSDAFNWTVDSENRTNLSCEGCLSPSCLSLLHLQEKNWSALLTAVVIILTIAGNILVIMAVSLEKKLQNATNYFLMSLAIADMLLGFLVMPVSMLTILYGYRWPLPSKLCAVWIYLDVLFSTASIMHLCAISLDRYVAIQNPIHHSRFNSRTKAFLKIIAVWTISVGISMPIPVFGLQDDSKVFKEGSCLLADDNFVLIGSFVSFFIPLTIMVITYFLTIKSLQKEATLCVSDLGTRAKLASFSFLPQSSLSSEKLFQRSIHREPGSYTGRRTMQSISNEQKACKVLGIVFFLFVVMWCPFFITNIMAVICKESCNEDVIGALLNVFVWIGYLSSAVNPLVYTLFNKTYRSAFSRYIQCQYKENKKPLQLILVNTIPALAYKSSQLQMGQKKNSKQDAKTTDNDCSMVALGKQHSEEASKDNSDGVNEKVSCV

Row | Selectivity ratio [1] | IC50 [2] [nM] | IC50 [3] [µM] | IC50 [4] [µM] | IC50 [5] [µM] | IC50 [6] [µM] | IC50 [7] [µM] | IC50 [8] [µM] | IC50 [9] [µM] | IC50 [10] [µM] | IC50 [11] [µM] | IC50 [12] [nM] | IC50 [13] [nM] | IC50 [14] [µM] | SMILES
1 | 301 | – | – | – | – | – | – | – | – | – | – | – | – | – | COC1Cc2ccccc2C2(CCN(C/C=C/c3ccccc3)CC2)O1 (stereo unspecified)
2 | 236 | – | – | – | – | – | – | – | – | – | – | – | – | – | OC1Cc2ccccc2C2(CCN(Cc3ccccc3)CC2)O1 (stereo unspecified)
3 | – | > 1000 | > 10 | > 10 | > 10 | > 10 | > 10 | > 10 | > 10 | > 10 | 6.2 | > 10000 | > 10000 | 8 | COC1OC2(CCN(Cc3ccccc3)CC2)c2ccccc21 (stereo unspecified)
4 | 30 | – | – | – | – | – | – | – | – | – | – | – | – | – | COC1Cc2ccccc2C2(CCN(CCCCc3ccccc3)CC2)O1 (stereo unspecified)
5 | 2 | – | – | – | – | – | – | – | – | – | – | – | – | – | OC1Cc2ccccc2C2(CCN(CCc3ccccc3)CC2)O1 (stereo unspecified)
6 | – | > 1000 | 0.46 | > 10 | > 10 | 8 | > 10 | > 10 | > 10 | > 10 | 3.1 | 510 | 1400 | 0.7 | COC1Cc2ccccc2C2(CCN(CCCc3ccccc3)CC2)O1 (stereo unspecified)

Row | SMILES | Selectivity ratio [1] | IC50 [2] [nM] | IC50 [3] [µM] | IC50 [4] [µM] | IC50 [5] [µM] | IC50 [6] [µM] | IC50 [7] [µM] | IC50 [8] [µM] | IC50 [9] [µM] | IC50 [10] [µM] | IC50 [11] [µM] | IC50 [12] [nM] | IC50 [13] [nM] | IC50 [14] [µM]
7 | COC1Cc2ccccc2C2(CCN(Cc3ccccc3)CC2)O1 (stereo unspecified) | – | > 1000 | 6.6 | > 10 | > 10 | > 10 | > 10 | > 10 | > 10 | > 10 | 3 | – | – | 6
